From paper PMC6130675 (Pharmaceutical Biology, 2017)
In brackets after ≈: the same amount, converted by molar mass. Like-named read-outs stand apart in the source and are kept apart here.

Legend:
[1] = test system: HHV-2 E194; test: Viral CPE inhibition assay (neutral red), HHV-2 E194 wild type; format: cell-based; details: for IC50: 96 h, HHV-2 E194 (WT), Vero-76 cells, neutral red, day 4 post-infection; for SI (Selectivity Index CC50/IC50): HHV-2 E194
From the text: (§1) Viral CPE inhibition assay to determine KPB-100 anti-HHV-2 TK-mutant activity: HHV-2 thymidine kinase mutant (TK-minus; TK-), CI-10161 was a patient isolate obtained on 11 November 1986 from Bruce Ronnie at Burrows Welcome. It was amplified one time in MA-104 cells. HHV-2 TK- CI-1253 (18 February 1991) was a patient isolate obtained on 05 February 1992 from Bruce Ronnie at the department of medicine at the University of British Colombia and amplified one time in Vero cells. HHV-2 (E194) was the standard wild-type E194 strain from the USU archives. KPB-100 was suspended in water (100 μg/mL). It was diluted 1/2 in minimum essential medium (MEM) solution, then diluted down further in half-log dilutions in MEM solution with 50 μg/mL gentamicin and 2% foetal bovine serum. Each dilution was added to 5 wells of a 96-well plate with an overnight monolayer of 80–100% confluent Vero-76 cells. Acyclovir and cidofovir were tested in parallel as controls. Three wells of each dilution were then infected with virus, and two wells remained uninfected as toxicity controls. The MOI was approximated 0.001 for CI-1253, 0.002 for CI-10161 and 0.017 for E194. When untreated virus control wells reached near complete cytopathic effect (CPE), which was day-four post-infection in each case, plates were stained with neutral red dye (which measures cell viability, thus can be used for quantifying the vitality of both virus-infected and uninfected, drug-treated cell cultures) for approximately 2 h, then supernatant dye was removed and the incorporated dye was extracted in 50:50 Sorensen citrate buffer/ethanol, then read on a spectrophotometer at 540 nm. Optical density (OD) values were normalized based on cell and virus controls, then IC50, 50% cytotoxic concentration (CC50) values, and Selectivity Index (SI) were calculated by regression analysis.

[2] = test system: HHV-2 TK- 1253; test: Viral CPE inhibition assay (neutral red), HHV-2 TK- CI-1253; format: cell-based; details: for IC50: 96 h, HHV-2 TK- 1253, Vero-76 cells, neutral red, day 4 post-infection; for SI (Selectivity Index CC50/IC50): HHV-2 TK- 1253
From the text: as §1

[3] = test system: HHV-2 TK- 10161; test: Viral CPE inhibition assay (neutral red), HHV-2 TK- CI-10161; format: cell-based; details: for IC50: 96 h, HHV-2 TK- 10161, Vero-76 cells, neutral red, day 4 post-infection; for SI (Selectivity Index CC50/IC50): HHV-2 TK- 10161
From the text: as §1

[4] = Cytotoxicity in uninfected cultures (neutral red) run with the CPE inhibition assay; format: cell-based; details: African green monkey, uninfected Vero-76 cells, run in parallel with each virus, read-out: CC50 (50% cytotoxic concentration of compound in uninfected cultures)
From the text: as §1

[5] = test system: VACV (WR); test: microbe, parasite or virus in culture; format: cell-based; details: Orthopoxvirus vaccinia, Vero 76, 72 h
[6] = test system: HHV-2 TK-; test: Viral CPE inhibition assay, HHV-2 TK- (mean of the two TK- isolates); format: cell-based
From the text: as §1

[7] = test system: HHV-2, strain G (ATCC VR-734); test: Standard plaque reduction assay against HHV-2 WT; format: cell-based
[8] = test system: HHV-1 (v2424); test: HHV-1 virus yield reduction (VYR) assay; format: cell-based; details: Vero 76, read-out: IC90 (concentration reducing virus yield by 1 log10 or 90%)
[9] = test system: VACV WR-GFP virus (VV.NP-S-EGFP); test: microbe, parasite or virus in culture; format: cell-based, Vaccinia virus; details: for IC50: HeLa, 24 h, read-out: IC50 virus spread inhibition
[10] = test system: VACV WR-GFP; format: cell-based, Vaccinia virus
[11] = test system: Vero-76 cells; details: African green monkey
[12] = test system: C1008 cells; test: Cytotoxicity measured by CPE in plaque reduction; details: 25 μg/mL
[13] = Vero 76, mean over TK- isolates 1253 and 10161, CPE inhibition, Vero-76 cells, read-out: mean IC50 against HHV-2 TK-

Q: Which IC50 [1] does the source give for `Nc1ccn(C[C@@H](CO)OCP(=O)(O)O)c(=O)n1` [Cidofovir, cidofovir] here?
A: 4.3 µg/mL (≈ 15.4 µM)

Q: What about the “SI (Selectivity Index CC50/IC50)” value [1] of the same compound?
A: >23

Q: What about the IC50 [2] of the same compound?
A: 0.22 µg/mL (≈ 0.788 µM)

Q: And the “SI (Selectivity Index CC50/IC50)” value [2]?
A: >450

Q: What about the IC50 [3] of the same compound?
A: 1.2 µg/mL (≈ 4.3 µM)

Q: What about the “SI (Selectivity Index CC50/IC50)” value [3] of the same compound?
A: >83

Q: And the CC50 at 4 days [4]?
A: > 100 µg/mL

Q: What about the IC50 [5] of the same compound?
A: 9.7 µg/mL (≈ 34.7 µM)

Q: And the IC50 [6, 13]?
A: 0.71 µg/mL (≈ 2.54 µM)

Q: For `COc1cc([C@@H]2c3cc(OC)c(OC)cc3C[C@H](CO)[C@H]2CO[C@@H]2OC[C@@H](O)[C@H](O)[C@H]2O)ccc1O` [KPB-100, scaphopetalone], which IC50 [7] is on record?
A: 2.5 µg/mL (≈ 4.94 µM)

Q: And the IC50 [1]?
A: 5.4 µg/mL (≈ 10.7 µM)

Q: What about the “SI (Selectivity Index CC50/IC50)” value [1] of the same compound?
A: >4.6

Q: What about the IC50 [2] of the same compound?
A: 4.6 µg/mL (≈ 9.08 µM)

Q: And the “SI (Selectivity Index CC50/IC50)” value [2]?
A: >5.4

Q: What about the IC50 [3] of the same compound?
A: 4.5 µg/mL (≈ 8.88 µM)

Q: What about the “SI (Selectivity Index CC50/IC50)” value [3] of the same compound?
A: >5.6

Q: What about the CC50 at 4 days [4] of the same compound?
A: > 25 µg/mL

Q: And the IC90 [8]?
A: 3 µg/mL (≈ 5.92 µM)

Q: And the IC50 [5]?
A: 3.1 µg/mL (≈ 6.12 µM)

Q: And the IC50 ([9]; Orthopoxvirus vaccinia)?
A: 1.63 µg/mL (≈ 3.22 µM)

Q: What about the inhibition at 4 µg/mL ([9]; Orthopoxvirus vaccinia, 4 μg/mL, read-out: inhibition of virus spread) of the same compound?
A: ~100%

Q: And the “anti-VACV activity in virus yield inhibition assay (in words)” value [10]?
A: exhibited anti-VACV activities

Q: And the IC50 ([6]; Vero 76, read-out: mean IC50 against HHV-2 TK-, mean over TK- isolates 1253 and 10161, CPE inhibition, Vero-76 cells)?
A: 4.5 µg/mL (≈ 8.88 µM)

Q: And the “mean IC50 against HHV-2 TK-” value ([6]; mean over TK- isolates 1253 and 10161, CPE inhibition, Vero-76 cells)?
A: 4.55 µg/mL

Q: And the toxicity estimated visually [11]?
A: 20%

Q: What about the “cytotoxicity (cytopathic effect)” value [12] of the same compound?
A: < 20%

Q: With `COc1cc(O)cc(O[C@@H]2O[C@H](COC(=O)c3cc(OC)c(O)c(OC)c3)[C@@H](O)[C@H](O)[C@H]2O)c1` [KPB-200] as the compound, how does the IC50 [7] read?
A: 2.9 µg/mL (≈ 6.01 µM)

Q: And the IC50 [5]?
A: 7.4 µg/mL (≈ 15.3 µM)

Q: What about the “IC50 virus spread inhibition” value [9] of the same compound?
A: 13.19 µg/mL (≈ 27.3 µM)

Q: And the IC50 ([9]; Orthopoxvirus vaccinia)?
A: 13.2 µg/mL (≈ 27.4 µM)

Q: What about the “anti-VACV activity in virus yield inhibition assay (in words)” value [10] of the same compound?
A: exhibited anti-VACV activities

Q: What about the “cytotoxicity (cytopathic effect)” value [12] of the same compound?
A: < 20%

Q: With `Nc1nc2c(ncn2COCCO)c(=O)[nH]1` [Acyclovir, acyclovir] as the compound, how does the IC50 [1] read?
A: 0.49 µg/mL (≈ 2.18 µM)

Q: And the “SI (Selectivity Index CC50/IC50)” value [1]?
A: >204

Q: And the IC50 [2]?
A: 9.3 µg/mL (≈ 41.3 µM)

Q: What about the “SI (Selectivity Index CC50/IC50)” value [2] of the same compound?
A: >11

Q: What about the IC50 [3] of the same compound?
A: 15 µg/mL (≈ 66.6 µM)

Q: What about the “SI (Selectivity Index CC50/IC50)” value [3] of the same compound?
A: >6.7

Q: What about the CC50 at 4 days [4] of the same compound?
A: > 100 µg/mL

Q: What about the IC50 [6, 13] of the same compound?
A: 12.2 µg/mL (≈ 54.2 µM)
